Our source for the IC50 values is article PMC9850456, “Click-designed vanilloid-triazole conjugates as dual inhibitors of AChE and Aβ aggregation” (RSC Advances, 2023).

One may read the IC50 as the midpoint of a concentration-inhibition curve.

In one test the target is T1, hAChE (Homo sapiens, UniProt P22303).
T1 construct: purchased BioVision ('Bio Vision, Egypt' [sic]; address 155 S. Milpitas Blvd., Milpitas, CA) K197-100
The experiment in a line: biochemical. Conditions: mean ± standard deviation; read-out: IC50 ± SD AChE. As to the method:
The synthesized compounds were assayed to determine their ability to inhibit hAChE using (K197-100, Bio Vision, Egypt)1. A 96-well plate was used by applying the spectroscopic method of Ellman1, and […]
The compounds were dissolved in a small amount of DMSO to obtain a concentration range of 0.01-10 μM. Each well contained 160 μl of dithiobis-(2-nitrobenzoic acid) (Ellman's reagent, DTNB), 10 μl of the tested compound and 50 μl hAChE solution, while Blank wells contained 160 μl DTNB, 10 μl DMSO, and 50 μl buffer (1 M, pH=8.0, Tris-HCl) . 100% ChE activity (100% activity) contained 160 μl DTNB, 2 μl DMSO, 8 μl buffer and 50 μl hAChE. After 5 min of incubation at 25 […]
Two time points (t1 and t2) in the linear range of the plot were chosen and the corresponding values for the absorbance (OD1 and OD2) were obtained.
The percentage of relative inhibition was calculated from the following equation:
% Relative Inhibition = Slope of[ EC]−Slope of [S] /Slope of[EC ] X100
% Relative Activity = Slope of [S] /Slope of [EC] X100
Where: S, is Sample Screen; EC, is Enzyme Control. […]

Another test addresses T2, Beta-Amyloid (1–42) (Homo sapiens, UniProt P05067).
T2 construct: SensoLyte® Thioflavin T Beta-Amyloid (1–42) Aggregation Kit; purchased ANASPEC Inc., Fremont, CA, USA
In words: biochemical. Conditions: Aβ aggregation, Thioflavin T; mean ± standard deviation; read-out: IC50 ± SD Aβ42 inhibition. The method, then:
The β-amyloid aggregation inhibition was measured using the fluorometric SensoLyte® Thioflavin T Beta-Amyloid (1–42) Aggregation Kit (ANASPEC Inc., Fremont, CA., USA) according to the manufacturer's instructions. […]
2. In Vitro Amyloid-β Aggregation Assay
Amyloid-β (1–42) aggregation was measured using the SensoLyte ® Thioflavin T β-Amyloid aggregation kit (AnaSpec, Fremont, CA, USA) 2, according to the manufacturer’s instructions. The assay is based on the property of the Thioflavin T dye, the fluorescence of which increases when it is bound to aggregates of amyloid-β (1 –42) peptides. Briefly, Thioflavin T was dissolved in assay buffer [10 mM Phosphate/150 mM NaCl (pH=8.0)] and used at a concentration of 100 μM. Samples were dissolved in assay buffer, 5 μL of the sample and 85 μL of amyloid-β (1–42) were mixed, followed by the addition of 10 μL of 2mM Thioflavin T.
Thioflavin T fluorescence was measured at intervals of 10 min for 2 h, with an excitation /emission =440 […]
All fluorescence readings are expressed in relative fluorescence units (RFU).
Morin was used as a positive control. Experiments were performed in triplicate and averaged, and the percentage of inhibition of amyloid-β aggregation was calculated according to the following equation:
% Relative Inhibition = (RFU of PC - RFU of S)/ ([…]) x 100
Where: PC, is the Peptide Positive Control or Solvent Control; S, is Sample Screen.
IC50 was generated by plotting the values of percent inhibition against their corresponding logarithmic concentration. Best fitted line was determined and IC50 was calculated from its equation.

T2 sequence (P05067 672-713): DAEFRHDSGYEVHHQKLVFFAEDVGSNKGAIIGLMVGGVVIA
T1 sequence (P22303 32-614): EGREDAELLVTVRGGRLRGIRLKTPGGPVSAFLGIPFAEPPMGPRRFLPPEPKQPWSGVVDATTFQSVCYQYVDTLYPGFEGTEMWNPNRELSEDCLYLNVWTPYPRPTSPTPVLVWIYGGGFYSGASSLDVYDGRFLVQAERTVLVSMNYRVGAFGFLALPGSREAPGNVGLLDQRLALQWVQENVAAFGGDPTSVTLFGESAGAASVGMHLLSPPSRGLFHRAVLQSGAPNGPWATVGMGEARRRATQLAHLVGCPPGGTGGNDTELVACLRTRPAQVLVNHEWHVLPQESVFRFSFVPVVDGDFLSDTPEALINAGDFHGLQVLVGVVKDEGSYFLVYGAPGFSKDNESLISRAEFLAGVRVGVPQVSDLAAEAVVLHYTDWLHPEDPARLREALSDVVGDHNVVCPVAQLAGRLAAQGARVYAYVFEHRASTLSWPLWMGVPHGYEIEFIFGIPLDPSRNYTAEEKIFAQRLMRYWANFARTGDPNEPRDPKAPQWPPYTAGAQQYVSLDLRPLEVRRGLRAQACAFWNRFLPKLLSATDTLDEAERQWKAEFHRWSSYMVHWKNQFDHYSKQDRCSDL

With `C=CCc1ccc(OCc2cn(Cc3ccc(O)c(OC)c3)nn2)c(OC)c1` [Compound 2, 4-((4-((4-allyl-2-methoxyphenoxy)methyl)-1H-1,2,3-triazol-1-yl)methyl)-2-methoxyphenol], the results for the IC50 at hAChE and at Beta-Amyloid (1–42) were 26.8 ± 1.35 µM and 22.7 ± 1.14 µM, respectively.
For the compound `COc1cc(/C=C/C(=O)OCc2cn(Cc3ccc(O)c(OC)c3)nn2)ccc1O` [Compound 9, (E)-(1-(4-hydroxy-3-methoxybenzyl)-1H-1,2,3-triazol-4-yl)methyl 3-(4-hydroxy-3 methoxyphenyl)acrylate], the values for the IC50 on hAChE and at Beta-Amyloid (1–42) were 0.47 ± 0.02 µM and 0.31 ± 0.02 µM, respectively.
For `COc1cc(Cn2cc(COc3ccc(C(=O)O)cc3OC)nn2)ccc1O` [Compound 5, 4-((1-(3-methoxy-4-hydroxybenzyl)-1H-1,2,3-triazol-4-yl)methoxy)-3-methoxybenzoic acid] the same measures were 2.11 µM and 1.48 ± 0.07 µM.
For `CCOC(=O)C=Cc1ccc(OCc2cn(Cc3ccc(O)c(OC)c3)nn2)c(OC)c1` [Compound 6, ethyl 4-((1-(3-methoxy-4-hydroxybenzyl)-1H-1,2,3-triazol-4-yl)methoxy)-3-methoxyphenyl acrylate], in that order: 2.52 ± 0.13 µM and 3.06 ± 0.15 µM.
For `COc1cc(Cn2cc(COc3ccc(C=O)cc3OC)nn2)ccc1O` [Compound 1, 4-((1-(3-methoxy-4-hydroxybenzyl)-1H-1,2,3-triazol-4-yl)methoxy)-3-methoxybenzaldehyde], the IC50 at hAChE came out at 14.2 ± 0.72 µM; at Beta-Amyloid (1–42), 4.85 ± 0.24 µM.
For the compound `COc1cc(Cn2cc(COc3ccc(C=CC(=O)O)cc3OC)nn2)ccc1O` [Compound 7, 4-((1-(3-methoxy-4-hydroxybenzyl)-1H-1,2,3-triazol-4-yl)methoxy)-3-methoxyphenyl acrylic acid], the results for the half-inhibitory concentration (IC50) on hAChE and at Beta-Amyloid (1–42) were 10.6 ± 0.53 µM and 4.48 ± 0.22 µM, respectively.
Turning to `COc1cc(Cn2cc(COc3ccc(C=CC=O)cc3OC)nn2)ccc1O` [Compound 3, 4-((1-(3-methoxy-4-hydroxybenzyl)-1H-1,2,3-triazol-4-yl)methoxy)-3-methoxyphenyl acrylaldehyde], the figures for the half-maximal inhibitory concentration (IC50) at hAChE and on Beta-Amyloid (1–42) were 5.53 ± 0.28 µM and 2.86 ± 0.14 µM, respectively.
For `COc1cc(Cn2cc(COC(=O)c3ccc(O)c(OC)c3)nn2)ccc1O` [Compound 8, (1-(4-hydroxy-3-methoxybenzyl)-1H-1,2,3-triazol-4-yl)methyl 4-hydroxy-3-methoxy benzoate] the same measures were 1.2 ± 0.06 µM and 0.95 ± 0.05 µM.
Turning to `CCOC(=O)c1ccc(OCc2cn(Cc3ccc(O)c(OC)c3)nn2)c(OC)c1` [Compound 4, 4-((1-(3-methoxy-4-hydroxybenzyl)-1H-1,2,3-triazol-4-yl)methoxy)-3-methoxy-ethyl benzoate], the IC50 on hAChE was 2.11 ± 0.12 µM; at Beta-Amyloid (1–42), 1.59 ± 0.08 µM.
